# Experiments:
# [1] = Rancimat oxidative stability test; conditions: 100°C, 20 cc/min air
# Experimental: The procedures described in Examples 1, 2 and 3 were used to prepare cocoa extracts which were manipulated further to produce two fractions from gel permeation chromatography. These two fractions are actually combined fractions A through C, and D and E (See Figure 1) whose antioxidant properties were compared against the synthetic antioxidants BHA and BHT.
# Peanut Oil was pressed from unroasted peanuts after the skins were removed. 50µL of methanol solubilized antioxidant was added to each sample to aid in dispersion of the antioxidant. A control sample was prepared with 50µL of methanol containing no antioxidant.
# The samples were evaluated in duplicate, for oxidative stability using the Rancimat stability test at 100°C and 20 cc/min of air. Experimental parameters were chosen to match those used with the Active Oxygen Method (AOM) or Swift Stability Test (Van Oosten et al., 1981). Results are reported in Table 8 as hours required to reach a peroxide level of 100 meq. Table 7: Concentrations of Antioxidants
# Helicobacter pylori = experiment: Disk diffusion bioassay; format: cell-based; conditions: control disk, 80ug, read-out: H. pylori Inhibition
# Experimental: (§1) A study was conducted to evaluate the antimicrobial activity of procyanidin oligomers against Helicobacter pylori and Staphylococcus aureus. Pentamer enriched material was prepared as described in Example 13, Method A and analyzed as described in Example 14, Method C, where 89% was pentamer, and 11% was higher oligomers (n is 6 to 12). Purified pentamer (96.3%) was prepared as described in Example 14, Method D.
# (§2) Helicobacter pylori and Staphylococcus aureus were obtained from the American Type Culture Collection (ATCC). For H. pylori, the vial was rehydrated with 0.5 mL Trypticase Soy broth and the suspension transferred to a slant of fresh TSA containing 5% defibrinated sheep blood. The slant was incubated at 37°C for 3 to 5 days under microaerophilic conditions in anaerobic jars (5 to 10% carbon dioxide; CampyPakPlus, BBL). When good growth was established in the pool of broth at the bottom of the slant, the broth was used to inoculate additional slants of TSA with sheep blood. Because viability decreased with continued subculturing, the broth harvested from the slants was pooled and stored at -80°C. Cultures for assay were used directly from the frozen vials. […]
# (§3) A cell suspension of each culture was prepared (H. pylori, 10^8 to 10^9 cfu/mL; S. aureus 10^6 to 10^7 cfu/mL) and 0.5 mL spread onto TSA plates with 5% sheep blood. […] Zones of inhibition were measured following outgrowth. […]
# Staphylococcus aureus = experiment: Disk diffusion bioassay; format: cell-based; conditions: read-out: S. aureus Inhibition
# Experimental: as §1, §2, §3
# [2] = test system: Human umbilical vein endothelial cells (HUVEC); experiment: NO production by HUVEC, Griess reaction; format: cell-based
# Experimental: Human umbilical vein endothelial cells (HUVEC) were obtained from Clonetics and cultures were carried out according to the manufacturer's specifications. HUVEC cells were seeded at 5,000 cells/cm^2 in 12-well plates (Falcon). After the third passage under the same conditions, they were allowed to reach confluence. The supernatant was renewed with fresh medium containing defined concentrations of bradykinin (25,50 and 100nM) or cocoa procyanidin fractions A-E (100µg/mL) as described in example 31. The culture was continued for 24 hr. and the cell free supernatants were collected and stored frozen prior to assessment of NO content as described below. In selected experiments, the NO synthase (NOS) antagonist, Nω-nitro-L-arginine methyl ester (L-NAME, 10µM) was added to assess the involvement of NOS in the observed NO production.
# HUVEC NO production was estimated by measuring nitrite concentration in the culture supernatant by the Griess reaction. Griess reagent was 1% sulfanilamide, 0.1% N-(1-naphthyl)-ethylenediamine dihydrochloride. Briefly, 50µL aliquots were removed from the various supernatants in quadruplicate and incubated with 150µL of the Griess reagent. The absorbency at 540 nm was determined in a multiscan (Labsystems Multiskans MCC/340) apparatus. Sodium nitrite was used at defined concentrations to establish standard curves. […]
compound,measurement,setting,value
"COc1ccc(O)c(C(C)(C)C)c1 [BHA, Butylated Hydroxyanisole]",hours required to reach a peroxide level of 100 meq,"[1]; 20 ppm nominal (actual levels in Table 7), control 10.5 ± 0.7",13.5 ± 2.1 h
same,hours required to reach a peroxide level of 100 meq,[1]; 100 ppm nominal (actual levels in Table 7),14.0 ± 1.4 h
"Cc1ncc([N+](=O)[O-])n1CCO [Metronidazole standard, metronidazole]",zone of inhibition at 80 µg/disc,Helicobacter pylori,11 mm
"CN[C@H](CC(C)C)C(=O)N[C@H]1C(=O)N[C@@H](CC(N)=O)C(=O)N[C@H]2C(=O)N[C@H]3C(=O)N[C@H](C(=O)N[C@H](C(=O)O)c4cc(O)cc(O)c4-c4cc3ccc4O)[C@H](O)c3ccc(c(Cl)c3)Oc3cc2cc(c3O[C@@H]2O[C@H](CO)[C@@H](O)[C@H](O)[C@H]2O[C@H]2C[C@](C)(N)[C@H](O)[C@H](C)O2)Oc2ccc(cc2Cl)[C@H]1O [Vancomycin standard, vancomycin]",zone of inhibition at 30 µg/disc,Staphylococcus aureus,15 mm
"bradykinin (RPPGFSPFR; Bradykinin; UniProt P01042 381-389, looked up)",NO production by HUVEC,"[2]; 25, 50 and 100nM, 24 hr",dose dependent release of NO
same,NO release in the presence of L-NAME,[2]; L-NAME 10µM,completely inhibited

# — EP2110134A1, “Cocoa extract compounds and methods for making and using the same” (MARS, INCORPORATED, priority 1996, dated 1997)
